According to patent US20240016773A1, “COMPOSITIONS AND METHODS FOR DIAGNOSIS AND TREATMENT OF CONDITIONS RELATED TO AGING” (EPITRACKER, INC., priority 2018, published 2024):

How the values were obtained:
[1] = system: twelve different human primary cell systems mimicking various disease states; test: BioMAP Diversity PLUS panel, twelve human primary cell systems (summary by disease); type: cell-based; set-up: key: x: Significantly reduced cell-based biomarkers relevant to specific diseases and conditions
Description: As a proof of concept, 14 compounds were selected from our compound library based on predicted efficacy in lowering inflammation in dolphins. Pure synthetic forms of these compounds were screened for cell-based activities (relevant to multiple aging-associated diseases and diseases that may impact longevity) using twelve different human primary cell systems mimicking various disease states (TABLE 4—description of primary human cell systems used to screen selected compounds in library).
(§1) The Diversity PLUS panel allows test agent characterization in an unbiased way across a broad set of systems modeling various human disease states. These systems are designed to model complex human tissue and disease biology of the vasculature, skin, lung, and inflammatory tissues. Quantitative measurements of 148 biomarker activities across this broad panel, along with comparative analysis of biological activities from known bioactive agents, were used to predict and compare the efficacy and function of each selected compound at four concentrations (740 nm and 2.2, 6.7 and 20 μM).
(§2) BioMAP systems are constructed with one or more primary cell types from healthy human donors, with stimuli (such as cytokines or growth factors) added to capture relevant signaling networks that naturally occur in human tissue or pathological conditions. Vascular biology is modeled in both a Th1 (3C system) and a Th2 (4H system) inflammatory environment, as well as in a Th1 inflammatory state specific to arterial smooth muscle cells (CASM3C system). Additional systems recapitulate aspects of the systemic immune response including monocyte-driven Th1 inflammation (LPS system) or T cell stimulation (SAg system), chronic Th1 inflammation driven by macrophage activation (lMphg system) and the T cell-dependent activation of B cells that occurs in germinal centers (BT system). The BE3C system (Th1) and the BF4T system (Th2) represent airway inflammation of the lung, while the MyoF system models myofibroblast-lung tissue remodeling. Lastly, skin biology is addressed in the KF3CT system modeling Th1 cutaneous inflammation and the HDF3CGF system modeling wound healing.
(§3) Each test agent generates a signature BioMAP profile that is created from the changes in protein biomarker readouts within individual system environments. Biomarker readouts (7-17 per system) are selected for therapeutic and biological relevance, are predictive for disease outcomes or specific drug effects and are validated using agents with known mechanism of action (MoA). Each readout is measured quantitatively by immune-based methods that detect protein (e.g., ELISA) or functional assays that measure proliferation and viability. BioMAP readouts are diverse and include cell surface receptors, cytokines, chemokines, matrix molecules and enzymes. In total, the Diversity PLUS panel contains 148 biomarker readouts that capture biological changes that occur within the physiological context of the particular BioMAP system. Specific BioMAP activities have been correlated to in vivo biology, and multiparameter BioMAP profiles have been used to distinguish compounds based on MoA and target selectivity across diverse physiological systems.
(§4) Activated BioMAP systems were incubated with each compound for 24 to 72 hours. Protein-based biomarkers from activated cell systems were measured and compared with non-treated control systems.

[2] = system: BT system: peripheral blood mononuclear cells, B cells (α-IgM, TCR ligands); test: BioMAP Diversity PLUS, BT system; type: cell-based, human
Description: as §1, §2, §3, §4

[3] = system: CASM3C system: coronary artery smooth muscle cells (IL-1β, TNFα, IFNγ); test: BioMAP Diversity PLUS, CASM3C system; type: cell-based, human; conditions: 2.2 μM
Description: (§5) The Diversity PLUS panel allows test agent characterization in an unbiased way across a broad set of systems modeling various human disease states. These systems are designed to model complex human tissue and disease biology of the vasculature, skin, lung, and inflammatory tissues. Quantitative measurements of 148 biomarker activities across this broad panel, along with comparative analysis of biological activities from known bioactive agents, were used to predict and compare the efficacy and function of each selected compound at four concentrations (740 nm and 2.2, 6.7 and 20 μM). […]
(§6) Each test agent generates a signature BioMAP profile that is created from the changes in protein biomarker readouts within individual system environments. Biomarker readouts (7-17 per system) are selected for therapeutic and biological relevance, are predictive for disease outcomes or specific drug effects and are validated using agents with known mechanism of action (MoA). Each readout is measured quantitatively by immune-based methods that detect protein (e.g., ELISA) or functional assays that measure proliferation and viability. BioMAP readouts are diverse and include cell surface receptors, cytokines, chemokines, matrix molecules and enzymes. […]

[4] = system: BF4T system: bronchial epithelial cells, dermal fibroblasts (IL-4, TNF-α); test: BioMAP Diversity PLUS, BF4T system; type: cell-based, human
Description: as §1
(§7) BioMAP systems are constructed with one or more primary cell types from healthy human donors, with stimuli (such as cytokines or growth factors) added to capture relevant signaling networks that naturally occur in human tissue or pathological conditions. Vascular biology is modeled in both a Th1 (3C system) and a Th2 (4H system) inflammatory environment, as well as in a Th1 inflammatory state specific to arterial smooth muscle cells (CASM3C system). […]
as §6, with “enzymes. In total, the Diversity PLUS panel contains 148 biomarker readouts that capture biological changes that occur within the physiological context of the particular BioMAP system.” for “enzymes.”
as §4

[5] = system: HDF3CGF system: dermal fibroblasts (IFNγ, TNFα, IL-1β, EGF, bFGF, PDGF-BB); test: BioMAP Diversity PLUS, HDF3CGF system; type: cell-based, human; conditions: HDF3CGF
Description: as §1, §2, §3, §4

[6] = system: BE3C system: bronchial epithelial cells (IL-1β, IFNγ, TNFα); test: BioMAP Diversity PLUS, BE3C system; type: cell-based, human
Description: as §1, §7
as §6, with “enzymes. In total, the Diversity PLUS panel contains 148 biomarker readouts that capture biological changes that occur within the physiological context of the particular BioMAP system.” for “enzymes.”
as §4

[7] = system: LPS system: venular endothelial cells, peripheral blood mononuclear cells (TLR4 ligand); test: BioMAP Diversity PLUS, LPS system; type: cell-based, human
Description: as §1, §2
as §6, with “enzymes. In total, the Diversity PLUS panel contains 148 biomarker readouts that capture biological changes that occur within the physiological context of the particular BioMAP system.” for “enzymes.”
as §4

[8] = system: SAg system: venular endothelial cells, peripheral blood mononuclear cells (TCR ligands); test: BioMAP Diversity PLUS, SAg system; type: cell-based, human
Description: as §1, §2, §3, §4

[9] = system: /Mphg system: macrophages, venular endothelial cells (TLR2 ligand); test: BioMAP Diversity PLUS, /Mphg system; type: cell-based, human; conditions: 20.0 μM
Description: as §5, §6

What does the source list for CCCCCCC=CCCCCCCCCC(=O)O [10-heptadecanoate]?
Significantly reduced cell-based biomarkers relevant to: Allergy ([1]; Table 6): x; Significantly reduced cell-based biomarkers relevant to: Asthma ([1]; Table 6): x; Significantly reduced cell-based biomarkers relevant to: Autoimmunity ([1]; Table 6): x; Significantly reduced cell-based biomarkers relevant to: COPD ([1]; Table 6): x; Significantly reduced cell-based biomarkers relevant to: Hematological oncology ([1]; Table 6): x; Significantly reduced cell-based biomarkers relevant to: Pulmonary fibrosis ([1]; Table 6): x; Significantly reduced cell-based biomarkers relevant to: SLE ([1]; Table 6): x; Significantly reduced cell-based biomarkers relevant to: T-cell dependent B cell proliferation ([1]; Table 6): x; Significantly reduced cell-based biomarkers relevant to: Th2 type inflammation ([1]; Table 6): x; Significantly reduced cell-based biomarkers relevant to: Chronic inflammation ([1]; Table 7): x; Significantly reduced cell-based biomarkers relevant to: Psoriasis ([1]; Table 7): x; Significantly reduced cell-based biomarkers relevant to: Restenosis ([1]; Table 7): x; Significantly reduced cell-based biomarkers relevant to: Rheumatoid arthritis ([1]; Table 7): x; Significantly reduced cell-based biomarkers relevant to: Thl type inflammation ([1]; Table 7): x; Significantly reduced cell-based biomarkers relevant to: Fibrosis ([1]; Table 8): x; Significantly reduced cell-based biomarkers relevant to: Stromal biology in tumors ([1]; Table 8): x; Significantly reduced cell-based biomarkers relevant to: Vascular inflammation ([1]; Table 8): x; Significant log10 reduction vs nontreated controls: Secreted interleukin 2 (IL-2) ([2]; 6.7 μM): −0.11 log10; Significant log10 reduction vs nontreated controls: Serum amyloid A [3]: −0.13 log10; Significant log10 reduction vs nontreated controls: Eotaxin 3 (CCL26) ([4]; 2.2 μM): −0.10 log10; Significant log10 reduction vs nontreated controls: Eotaxin 3 (CCL26) ([4]; 6.7 μM): −0.13 log10; Significant log10 reduction vs nontreated controls: Eotaxin 3 (CCL26) ([4]; 20.0 μM): −0.31 log10; Significant log10 reduction vs nontreated controls: Macrophage colony-stimulating factor (M-CSF) ([5]; 6.7 μM): −0.1 log10; Significant log10 reduction vs nontreated controls: Vascular cell adhesion molecule 1 (VCAM-1) ([5]; 6.7 μM): −0.17 log10

Which results are given for C=CCCCCCCCCC(=O)O [10-undecanoate]?
Significantly reduced cell-based biomarkers relevant to: Allergy ([1]; Table 6): x; Significantly reduced cell-based biomarkers relevant to: Asthma ([1]; Table 6): x; Significantly reduced cell-based biomarkers relevant to: Autoimmunity ([1]; Table 6): x; Significantly reduced cell-based biomarkers relevant to: Hematological oncology ([1]; Table 6): x; Significantly reduced cell-based biomarkers relevant to: SLE ([1]; Table 6): x; Significantly reduced cell-based biomarkers relevant to: T-cell dependent B cell proliferation ([1]; Table 6): x; Significantly reduced cell-based biomarkers relevant to: Atherosclerosis ([1]; Table 7): x; Significantly reduced cell-based biomarkers relevant to: Chronic inflammation ([1]; Table 7): x; Significantly reduced cell-based biomarkers relevant to: Metabolic diseases ([1]; Table 7): x; Significantly reduced cell-based biomarkers relevant to: Organ transplantation ([1]; Table 7): x; Significantly reduced cell-based biomarkers relevant to: Psoriasis ([1]; Table 7): x; Significantly reduced cell-based biomarkers relevant to: Restenosis ([1]; Table 7): x; Significantly reduced cell-based biomarkers relevant to: Rheumatoid arthritis ([1]; Table 7): x; Significantly reduced cell-based biomarkers relevant to: Thl type inflammation ([1]; Table 7): x; Significantly reduced cell-based biomarkers relevant to: Crohn's disease ([1]; Table 8): x; Significantly reduced cell-based biomarkers relevant to: Fibrosis ([1]; Table 8): x; Significantly reduced cell-based biomarkers relevant to: Hematological oncology ([1]; Table 8): x; Significantly reduced cell-based biomarkers relevant to: Pulmonary responses to respiratory infections ([1]; Table 8): x; Significantly reduced cell-based biomarkers relevant to: Sarcoidosis ([1]; Table 8): x; Significantly reduced cell-based biomarkers relevant to: Stromal biology in tumors ([1]; Table 8): x; Significant log10 reduction vs nontreated controls: Tissue plasminogen activator (tPA) ([6]; 2.2 μM): −0.08 log10; Significant log10 reduction vs nontreated controls: Tissue plasminogen activator (tPA) ([6]; 6.7 μM): −0.11 log10; Significant log10 reduction vs nontreated controls: Tissue plasminogen activator (tPA) ([6]; 20.0 μM): −0.12 log10; Significant log10 reduction vs nontreated controls: Secreted interleukin 17A (IL-17A) ([2]; 2.2 μM): −0.25 log10; Significant log10 reduction vs nontreated controls: Secreted interleukin 17A (IL-17A) ([2]; 20.0 μM): −0.20 log10; Significant log10 reduction vs nontreated controls: Tumor necrosis factor alpha (TNFα) ([2]; 20.0 μM): −0.12 log10; Significant log10 reduction vs nontreated controls: Secreted prostaglandin E2 (PGE2) ([7]; 0.7 μM): −0.11 log10; Significant log10 reduction vs nontreated controls: Secreted prostaglandin E2 (PGE2) ([7]; 2.2 μM): −0.08 log10; Significant log10 reduction vs nontreated controls: Secreted prostaglandin E2 (PGE2) ([7]; 6.7 μM): −0.20 log10; Significant log10 reduction vs nontreated controls: CD40 ([7]; 20.0 μM): −0.11 log10; Significant log10 reduction vs nontreated controls: CD40 ([8]; 0.7 μM): −0.07 log10; Significant log10 reduction vs nontreated controls: CD40 ([8]; 2.2 μM): −0.14 log10; Significant log10 reduction vs nontreated controls: CD40 ([8]; 6.7 μM): −0.09 log10; Significant log10 reduction vs nontreated controls: CD40 ([8]; 20.0 μM): −0.11 log10; Significant log10 reduction vs nontreated controls: Macrophage colony-stimulating factor (M-CSF) ([5]; 0.7 μM): −0.11 log10; Significant log10 reduction vs nontreated controls: Macrophage colony-stimulating factor (M-CSF) ([5]; 2.2 μM): −0.07 log10; Significant log10 reduction vs nontreated controls: Secreted interleukin 10 (IL-10) [9]: −0.21 log10
